From US9499550B2 (BRISTOL-MYERS SQUIBB COMPANY, priority 2012, dated 2016)
pEC50: −log10 of the molar value. Read-outs that look alike come from different tables or passages of the source.

What was measured:
[1] = system: HCV genotype 1a (H77 strain) replicon in HUH-7 cells; assay: HCV replicon luciferase reporter assay, genotype 1a; assay type: cell-based; details: Hepatitis C virus, Huh-7, 72 h, 3 days incubation
In short: (§1)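 Replicon inhibition for both genotypes was measured as Renilla luciferase signal (EnduRen, 7.5 μM final, 2 h) after 3-day, 37° C exposure of replicon-bearing HUH-7 cells in 4% FCS DMEM, 0.5% DMSO. The 1b construct carries S1179I; the 1a H77 construct carries P1496L and S2204I. Twenty-point, 3-fold dilutions were fitted four-parametrically for EC50, and CC50 was taken from multiplexed Cell Titer-Blue.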

[2] = system: HCV genotype 1b (Con1) replicon in HUH-7 cells; assay: HCV replicon luciferase reporter assay, genotype 1b; assay type: cell-based; details: Hepatitis C virus, Huh-7, 72 h, 3 days incubation
In short: as §1

[3] = HCV genotype 1a replicon luciferase, read-out: LE_1a (EC50, range)
[4] = HCV genotype 1b replicon luciferase, read-out: LE_1b (EC50, range)
[5] = HCV genotype 1a replicon luciferase assay, range class, read-out: LE_1a (EC50, range)
[6] = HCV genotype 1b replicon luciferase assay, range class, read-out: LE_1b (EC50, range)
[7] = GETYPE1A, HCV genotype 1a replicon luciferase, read-out: LE_1a (EC50, range)
[8] = GETYPE1B, HCV genotype 1b replicon luciferase, read-out: LE_1b (EC50, range)

| Compound | pEC50 [1, 3] | pEC50 [2, 4] | pEC50 [1, 5] | pEC50 [2, 6] | other results |
| --- | --- | --- | --- | --- | --- |
| CC[C@@H]1C[C@H](C)CC/C=C\[C@@H]2C[C@@]2(C(=O)NS(=O)(=O)C2(C)CC2)NC(=O)[C@@H]2C[C@@H](Oc3nccc4cc(OC)c(F)cc34)CN2C(=O)[C@H]1NC(=O)C1(C(F)(F)F)CC1 [Compound 4331, (2R,6S,7R,9R,13aS,14aR,16aS,Z)-7-ethyl-2-((7-fluoro-6-methoxyisoquinolin-1-yl)oxy)-9-methyl-N-((1-methylcyclopropyl)sulfonyl)-5,16-dioxo-6-(1-(trifluoromethyl)cyclopropanecarboxamido)-1,2,3,5,6,7,8,9,10,11,13a,14,14a,15,16,16a-hexadecahydrocyclopropa[e]pyrrolo[1,2-a][1,4]diazacyclopentadecine-14a-carboxamide] | 8.30 to 9.00 | 9.00 to 9.29 | – | – | – |
| CCCOc1cc2c(Cl)cccc2c(O[C@@H]2C[C@H]3C(=O)N[C@]4(C(=O)NS(=O)(=O)C5(C)CC5)C[C@H]4/C=C\CC[C@H](C)C[C@@H](C)[C@H](NC(=O)O[C@H](C)C(F)(F)F)C(=O)N3C2)n1 [Compound 1079, (R)-1,1,1-trifluoropropan-2-yl ((2R,6S,7R,9S,13aS,14aR,16aS,Z)-2-((5-chloro-3-propoxyisoquinolin-1-yl)oxy)-7,9-dimethyl-14a-(((1-methylcyclopropyl)sulfonyl)carbamoyl)-5,16-dioxo-1,2,3,5,6,7,8,9,10,11,13a,14,14a,15,16,16a-hexadecahydrocyclopropa[e]pyrrolo[1,2-a][1,4]diazacyclopentadecin-6-yl)carbamate] | – | – | 6.99 to 8.32 | > 8.26 | – |
| COc1ccc2c(O[C@@H]3C[C@H]4C(=O)N[C@]5(C(=O)NS(=O)(=O)C6CC6)C[C@H]5/C=C\CC[C@@H](C)C[C@@H](C)[C@H](NC(=O)OC5C[C@@H]6C[C@@H]6C5)C(=O)N4C3)nc(-c3ccc(N4CCOCC4)cc3)cc2c1 (stereo partly drawn) [Compound 5195, (1R,3r,5S)-bicyclo[3.1.0]hexan-3-yl((2R,6S,7R,9R,13aS,14aR,16aS,Z)-14a-((cyclopropylsulfonyl)carbamoyl)-2-((6-methoxy-3-(4-morpholinophenyl)isoquinolin-1-yl)oxy)-7,9-dimethyl-5,16-dioxo-1,2,3,5,6,7,8,9,10,11,13a,14,14a,15,16,16a-hexadecahydrocyclopropa[e]pyrrolo[1,2-a][1,4]diazacyclopentadecin-6-yl)carbamate] | > 8.26 | > 8.26 | – | – | – |
| CCOc1nnc(O[C@@H]2C[C@H]3C(=O)N[C@]4(C(=O)NS(=O)(=O)C5CC5)C[C@H]4/C=C\CC[C@@H](C)C[C@@H](C)[C@H](NC(=O)OC(C)(C)C)C(=O)N3C2)c2ccccc12 [Compound 5035, tert-butyl ((2R,6S,7R,9R,13aS,14aR,16aS,Z)-14a-((cyclopropylsulfonyl)carbamoyl)-2-((4-ethoxyphthalazin-1-yl)oxy)-7,9-dimethyl-5,16-dioxo-1,2,3,5,6,7,8,9,10,11,13a,14,14a,15,16,16a-hexadecahydrocyclopropa[e]pyrrolo[1,2-a][1,4]diazacyclopentadecin-6-yl)carbamate] | > 8.26 | > 8.26 | – | – | – |
| CC[C@@H]1C[C@H](C)CC/C=C\[C@@H]2C[C@@]2(C(=O)NS(=O)(=O)C2(C)CC2)NC(=O)[C@@H]2C[C@@H](Oc3nc4c(c5cc(OC)c(F)cc35)CCCO4)CN2C(=O)[C@H]1NC(=O)OC(C)(C)C(F)(F)F [Compound 1197] | – | – | – | – | pEC50 [1, 7]: 8.30 to 9.00; pEC50 [2, 8]: 9.00 to 9.29 |
| COc1ccc2c(O[C@@H]3C[C@H]4C(=O)N[C@]5(C(=O)NS(=O)(=O)C6CC6)C[C@H]5/C=C\CC[C@@H](C)C[C@@H](C)[C@H](NC(=O)OC5C[C@@H]6C[C@@H]6C5)C(=O)N4C3)nc(-c3ccc(OC(C)C)cn3)cc2c1 (stereo partly drawn) [Compound 5209, (1R,3r,5S)-bicyclo[3.1.0]hexan-3-yl((2R,6S,7R,9R,13aS,14aR,16aS,Z)-14a-((cyclopropylsulfonyl)carbamoyl)-2-((3-(5-isopropoxypyridin-2-yl)-6-methoxyisoquinolin-1-yl)oxy)-7,9-dimethyl-5,16-dioxo-1,2,3,5,6,7,8,9,10,11,13a,14,14a,15,16,16a-hexadecahydrocyclopropa[e]pyrrolo[1,2-a][1,4]diazacyclopentadecin-6-yl)carbamate] | > 8.26 | > 8.26 | – | – | – |
| CC[C@@H]1C[C@H](C)CC/C=C\[C@@H]2C[C@@]2(C(=O)NS(=O)(=O)C2(C)CC2)NC(=O)[C@@H]2C[C@@H](Oc3ncc(N4CCOCC4)c4ccccc34)CN2C(=O)[C@H]1NC(=O)OC(C)(C)C [Compound 5417] | 8.30 to 9.00 | 8.30 to 9.00 | – | – | – |
| COc1ccc2c(O[C@@H]3C[C@H]4C(=O)N[C@]5(C(=O)NS(=O)(=O)C6(C)CC6)C[C@H]5/C=C\CC[C@H](C)C[C@@H](C)[C@H](NC(=O)O[C@@H]5C[C@@H]6C[C@@H]6C5)C(=O)N4C3)nc(N(C)C)cc2c1 [Compound 3110, (1R,3r,5S)-bicyclo[3.1.0]hexan-3-yl((2R,6S,7R,9S,13aS,14aR,16aS,Z)-2-((3-(dimethylamino)-6-methoxyisoquinolin-1-yl)oxy)-7,9-dimethyl-14a-(((1-methylcyclopropyl)sulfonyl)carbamoyl)-5,16-dioxo-1,2,3,5,6,7,8,9,10,11,13a,14,14a,15,16,16a-hexadecahydrocyclopropa[e]pyrrolo[1,2-a][1,4]diazacyclopentadecin-6-yl)carbamate] | – | – | 6.99 to 8.32 | 6.99 to 8.32 | – |
| CCC1(S(=O)(=O)NC(=O)[C@@]23C[C@H]2/C=C\CC[C@H](C)C[C@@H](C)[C@H](NC(=O)OC(C)(C)C(F)(F)F)C(=O)N2C[C@H](Oc4nccc5cc(OC)c(F)cc45)C[C@H]2C(=O)N3)CC1 [Compound 4126] | – | – | – | – | pEC50 [1, 7]: > 8.26; pEC50 [2, 8]: > 8.26 |
| C[C@@H]1CC/C=C\[C@@H]2C[C@@]2(C(=O)NS(=O)(=O)C2CC2)NC(=O)[C@@H]2C[C@@H](Oc3ncc(OC4CC4)c4ccccc34)CN2C(=O)[C@@H](NC(=O)OC(C)(C)C)[C@H](C)C1 [Compound 22, tert-butyl ((2R,6S,7R,9R,13aS,14aR,16aS,Z)-2-((4-cyclopropoxyisoquinolin-1-yl)oxy)-14a-((cyclopropylsulfonyl)carbamoyl)-7,9-dimethyl-5,16-dioxo-1,2,3,5,6,7,8,9,10,11,13a,14,14a,15,16,16a-hexadecahydrocyclopropa[e]pyrrolo[1,2-a][1,4]diazacyclopentadecin-6-yl)carbamate] | – | – | > 8.26 | > 8.26 | pEC50 ([1]; HCV genotype 1a replicon luciferase assay, read-out: LE_1a (EC50)): 9.37; pEC50 ([2]; HCV genotype 1b replicon luciferase assay, read-out: LE_1b (EC50)): 9.40 |
| CCOc1cnc(O[C@@H]2C[C@H]3C(=O)N[C@]4(C(=O)NS(=O)(=O)C5CC5)C[C@H]4/C=C\CC[C@@H](C)C[C@@H](C)[C@H](NC(=O)OC(C)(C)C(F)(F)F)C(=O)N3C2)c2ccccc12 [Compound 18, 1,1,1-trifluoro-2-methylpropan-2-yl((2R,6S,7R,9R,13aS,14aR,16aS,Z)-14a-((cyclopropylsulfonyl)carbamoyl)-2-((4-ethoxyisoquinolin-1-yl)oxy)-7,9-dimethyl-5,16-dioxo-1,2,3,5,6,7,8,9,10,11,13a,14,14a,15,16,16a-hexadecahydrocyclopropa[e]pyrrolo[1,2-a][1,4]diazacyclopentadecin-6-yl)carbamate] | – | – | > 8.26 | > 8.26 | – |
